In patent US11492359B2, “Near-infrared nerve-sparing fluorophores” (OREGON HEALTH & SCIENCE UNIVERSITY, priority 2018, dated 2022):

Legend:
[1] = system: murine brachial plexus and sciatic nerves; test: Nerve-specificity screening using direct/topical administration; format: in vivo, mouse; conditions: for nerve specificity (N/M contrast vs control group) via direct administration: 125 μM, imaged 30 minutes after staining; for N/M and N/A ratios vs unstained control animals: direct administration
Procedure: (§1) All reagents were purchased from Sigma Aldrich, Fisher Scientific, TCI, or Ark Pharm. Unless otherwise indicated, all commercially available starting materials were used directly without further purification. Analytical thin layer chromatography (TLC) was performed on Millipore ready-to-use plates with silica gel 60 (F254, 32-63 μm). Flash chromatography was performed on Sorbent Technologies silica gel for column chromatography or on a Biotage Isolera Flash System using SNAP Ultra cartridges. High-resolution mass spectra (HRMS) were measured on a ThermoElectron LTQ-Orbitrap high resolution mass spectrometer with a dedicated Accela HPLC system, or an Agilent 6244 time-of-flight LCMS with diode array detector VL+. LCMS and Purity Characterization Mass-to-charge ratio and purity of the Oxazine compounds were characterized on an Agilent 6244 time-of-flight tandem liquid chromatography mass spectroscopy (LCMS) with diode array detector VL+. Sample (10 μL) was injected into a C18 column (Poroshell 120, 4.6×50 mm, 2.7 micron), and eluted with a solvent system of A (H2O, 0.1% FA) and B (MeCN, 01.% FA) at 0.4 mL/min, from A/B=90/10 to 5/95 over 10 min, maintained at A/B=5/95 for additional 5 min. Ions were detected in positive ion mode by setting the capillary voltage at 4 kV and gas temperature at 350° C. Purity was calculated through area under the curve analysis of the absorbance at 254 nm. UV-Vis Absorption and Fluorescence Spectroscopy. UV-Vis spectra were collected with a Cary 50 UV-Vis spectrophotometer at room temperature, using a 1-cm quartz cuvette. Fluorescence spectra were collected on a Cary Eclipse fluorescence spectrophotometer (Agilent Technologies). All absorbance spectra were reference corrected. Extinction coefficient was calculated from Beer's Law plots of absorbance versus concentration. Fluorescence spectra were corrected for the wavelength dependent response of the R928 photomultiplier tube using a manufacturer generated correction file. Relative quantum yields are reported as the average of multiple measurements using multiple references, including Oxazine 1, Oxazine 170, and Rhodamine 101. Physicochemical Property Calculation. Physicochemical partition coefficients (Log D) values at pH 7.4, number of hydrogen bond donors and acceptors, polar surface area, and the number of rotatable bonds were calculated using Marvin and JChem calculator plugins (ChemAxon, Budapest, Hungary). Nerve-Specificity Screening using Direct/Topical Administration Each compound was screened for its tissue-specificity using a previously published direct/topical administration strategy in murine brachial plexus and sciatic nerves.^1 Each compound from the Oxazine library was formulated in the previously utilized co-solvent formulation (10% DMSO, 5% Kolliphor, 65% serum and 20% phosphate buffered saline) at 125 μM. 100 μL of the formulated Oxazine were incubated on the exposed brachial plexus or sciatic nerve for 5 minutes. The fluorophore containing solution was removed and the area was irrigated with saline 18 times to remove any unbound fluorophore. Co-registered fluorescence and color images were collected of each stained area 30 minutes after Oxazine direct/topical administration using a custom built macroscopic imaging system with 620/60 nm excitation and 700/75 nm bandpass emission filters. Custom written MatLab code was used to analyze the tissue specific fluorescence where regions of interest were selected on the nerve, muscle and adipose tissue using the white light images. These regions of interest were then analyzed on the co-registered matched fluorescence images permitting assessment of the nerve to muscle and nerve to adipose ratios in blinded manner. […]

[2] = UV-Vis absorption and fluorescence spectroscopy of the Oxazine library; format: physicochemical; conditions: for Extinction coefficient: Beer's Law plots; for Quantum yield: relative, references Oxazine 1, Oxazine 170, Rhodamine 101
Procedure: as §1

[3] = system: murine brachial plexus and sciatic nerves; test: Nerve-specificity screening using systemic administration; format: in vivo; conditions: for nerve specificity / nerve contrast (N/M vs control group) following systemic administration / toxicity upon systemic administration: IV; for nerve specificity / nerve contrast (N/M vs control group) following systemic administration: 200 nmol, 4 hours prior to imaging; for toxicity upon systemic administration: mice; for N/M and N/A ratios vs unstained control animals: systemic administration

SMILES: CC/N=c1\ccc2nc3ccc(NCC)cc3oc-2c1 [LGW01-21, (E)-N-(7-(ethylamino)-3H-phenoxazin-3-ylidene)ethanaminium]
- nerve specificity (N/M contrast vs control group) via direct administration [1]: positive nerve specificity
- Max Abs [2]: 617 nm
- Max Em [2]: 634 nm
- Max Ex [2]: 620 nm
- Extinction coefficient [2]: 28745 M⁻¹ cm⁻¹
- Quantum yield [2]: 30.12%
- nerve specificity / nerve contrast (N/M vs control group) following systemic administration [3]: negative for nerve contrast

SMILES: CC/N=c1/cc2oc3cc(N(CC)CC)c(C)cc3nc-2cc1C [LGW01-23, (Z)—N-(7-(diethylamino)-2,8-dimethyl-3H-phenoxazin-3-ylidene)ethanaminium]
- nerve specificity (N/M contrast vs control group) via direct administration [1]: positive nerve specificity
- Max Abs [2]: 645 nm
- Max Em [2]: 635 nm
- Max Ex [2]: 620 nm
- Extinction coefficient [2]: 62445 M⁻¹ cm⁻¹
- Quantum yield [2]: 0.67%
- nerve specificity / nerve contrast (N/M vs control group) following systemic administration [3]: negative for nerve contrast

SMILES: CCC/N=c1/cc2oc3cc(NCCC)c(C)cc3nc-2cc1C [LGW01-64, (Z)—N-(2,8-dimethyl-7-(propylamino)-3H-phenoxazin-3-ylidene)propan-1-aminium]
- nerve specificity (N/M contrast vs control group) via direct administration [1]: positive nerve specificity
- Max Abs [2]: 620 nm
- Max Em [2]: 638 nm
- Max Ex [2]: 620 nm
- Extinction coefficient [2]: 50166 M⁻¹ cm⁻¹
- Quantum yield [2]: 42.15%
- nerve specificity / nerve contrast (N/M vs control group) following systemic administration [3]: negative for nerve contrast
- toxicity upon systemic administration [3]: toxic upon systemic administration

SMILES: CC/N=c1/cc2oc3c4c5c(cc3nc-2cc1C)CCCN5CCC4 [LGW01-99, (Z)—N-(11-methyl-2,3,6,7-tetrahydro-1H,5H,12H-quinolizino[1,9-bc]phenoxazin-12-ylidene)ethanaminium]
- Max Abs [2]: 648 nm
- Max Em [2]: 667 nm
- Max Ex [2]: 650 nm
- Extinction coefficient [2]: 56046 M⁻¹ cm⁻¹
- Quantum yield [2]: 10.14%
- toxicity upon systemic administration [3]: toxic upon systemic administration

SMILES: CC/N=c1/cc2oc3cc(NCC)cc(C)c3nc-2c(C)c1 [LGW02-95, (E)-N-(7-(ethylamino)-1,9-dimethyl-3H-phenoxazin-3-ylidene)ethanaminium]
- nerve specificity (N/M contrast vs control group) via direct administration [1]: positive nerve specificity
- Max Abs [2]: 606 nm
- Max Em [2]: 627 nm
- Max Ex [2]: 605 nm
- Extinction coefficient [2]: 48653 M⁻¹ cm⁻¹
- Quantum yield [2]: 32.50%
- nerve specificity / nerve contrast (N/M vs control group) following systemic administration [3]: negative for nerve contrast

SMILES: CC1=CC(C)(C)Nc2cc3c(cc21)N=c1cc2c(cc1O3)=NC(C)(C)C=C2C [LGW03-01, 2,2,4,8,10,10-hexamethyl-10,11-dihydro-2H-dipyrido[3,2-b:2′,3′-i]phenoxazin-1-ium]
- nerve specificity (N/M contrast vs control group) via direct administration [1]: positive nerve specificity
- Max Abs [2]: 677 nm
- Max Em [2]: 695 nm
- Max Ex [2]: 680 nm
- Extinction coefficient [2]: 44453 M⁻¹ cm⁻¹
- Quantum yield [2]: 17.27%
- nerve specificity / nerve contrast (N/M vs control group) following systemic administration [3]: negative for nerve contrast

SMILES: CC[N+](CC)=c1ccc2nc3ccc(N4CCCC4)cc3oc-2c1 [LGW03-07, N-ethyl-N-(7-(pyrrolidin-1-yl)-3H-phenoxazin-3-ylidene)ethanaminium]
- nerve specificity (N/M contrast vs control group) via direct administration [1]: negative nerve specificity
- Max Abs [2]: 654 nm
- Max Em [2]: 672 nm
- Max Ex [2]: 660 nm
- Extinction coefficient [2]: 52356 M⁻¹ cm⁻¹
- Quantum yield [2]: 9.28%
- nerve specificity / nerve contrast (N/M vs control group) following systemic administration [3]: positive

SMILES: CCN(CC)c1cc2oc3cc(=[N+](CC)CC)ccc-3nc2cc1C [LGW03-23, N-(7-(diethylamino)-8-methyl-3H-phenoxazin-3-ylidene)-N-ethylethanaminium]
- nerve specificity (N/M contrast vs control group) via direct administration [1]: positive nerve specificity
- Max Abs [2]: 664 nm
- Max Em [2]: 690 nm
- Max Ex [2]: 645 nm
- Extinction coefficient [2]: 23099 M⁻¹ cm⁻¹
- Quantum yield [2]: 1.53%
- nerve specificity / nerve contrast (N/M vs control group) following systemic administration [3]: negative for nerve contrast

SMILES: CC[N+](CC)=c1ccc2nc3cc4c(cc3oc-2c1)NCCO4 [LGW03-37, N-(3,4-dihydro-[1,4]oxazino[2,3-b]phenoxazin-8(2H)-ylidene)-N-ethylethanaminium]
- nerve specificity (N/M contrast vs control group) via direct administration [1]: positive nerve specificity
- Max Abs [2]: 646 nm
- Max Em [2]: 670 nm
- Max Ex [2]: 650 nm
- Extinction coefficient [2]: 48849 M⁻¹ cm⁻¹
- Quantum yield [2]: 4.34%
- nerve specificity / nerve contrast (N/M vs control group) following systemic administration [3]: negative for nerve contrast

SMILES: CC/N=c1/cc2oc3cc4c(cc3nc-2cc1C)C(C)=CC(C)(C)N4CC [LGW03-57, (Z)—N-(1-ethyl-2,2,4,8-tetramethyl-1,2-dihydro-9H-pyrido[3,2-b]phenoxazin-9-ylidene)ethanaminium]
- nerve specificity (N/M contrast vs control group) via direct administration [1]: positive nerve specificity
- Max Abs [2]: 661 nm
- Max Em [2]: 680 nm
- Max Ex [2]: 665 nm
- Extinction coefficient [2]: 54072 M⁻¹ cm⁻¹
- Quantum yield [2]: 18.17%
- nerve specificity / nerve contrast (N/M vs control group) following systemic administration [3]: negative for nerve contrast

SMILES: CC[N+](CC)=c1ccc2nc3ccc(N(C)C)cc3oc-2c1 [LGW03-76, N-(7-(dimethylamino)-3H-phenoxazin-3-ylidene)-N-ethylethanaminium]
- nerve specificity (N/M contrast vs control group) via direct administration [1]: high nerve specificity
- N/M and N/A ratios vs unstained control animals [1]: significantly higher N/M and N/A ratios than unstained control animals
- Max Abs [2]: 654 nm
- Max Em [2]: 669 nm
- Max Ex [2]: 655 nm
- Extinction coefficient [2]: 66111 M⁻¹ cm⁻¹
- Quantum yield [2]: 7.99%
- nerve specificity / nerve contrast (N/M vs control group) following systemic administration [3]: high nerve specificity
- N/M and N/A ratios vs unstained control animals [3]: significantly higher N/M and N/A ratios than unstained control animals

SMILES: CCCNc1cc2oc3cc(=[N+](CC)CC)ccc-3nc2cc1C [LGW04-31, N-ethyl-N-(8-methyl-7-(propylamino)-3H-phenoxazin-3-ylidene)ethanaminium]
- nerve specificity (N/M contrast vs control group) via direct administration [1]: high nerve specificity
- N/M and N/A ratios vs unstained control animals [1]: significantly higher N/M and N/A ratios than unstained control animals
- Max Abs [2]: 641 nm
- Max Em [2]: 661 nm
- Max Ex [2]: 640 nm
- Extinction coefficient [2]: 59586 M⁻¹ cm⁻¹
- Quantum yield [2]: 5.01%
- nerve specificity / nerve contrast (N/M vs control group) following systemic administration [3]: high nerve specificity
- N/M and N/A ratios vs unstained control animals [3]: significantly higher N/M and N/A ratios than unstained control animals

SMILES: CCN1CCc2cc3nc4ccc(=[N+](CC)CC)cc-4oc3cc21 [LGW05-84, N-ethyl-N-(1-ethyl-2,3-dihydropyrrolo[3,2-b]phenoxazin-8(1H)-ylidene)ethanaminium]
- nerve specificity (N/M contrast vs control group) via direct administration [1]: negative nerve specificity
- Max Abs [2]: 643 nm
- Max Em [2]: 675 nm
- Max Ex [2]: 650 nm
- Extinction coefficient [2]: 46048 M⁻¹ cm⁻¹
- Quantum yield [2]: 4.85%
- nerve specificity / nerve contrast (N/M vs control group) following systemic administration [3]: positive

SMILES: CC/N=c1/cc2oc3cc4c(cc3nc-2cc1C)CCN4 [LGW05-85, (Z)—N-(7-methyl-2,3-dihydropyrrolo[3,2-b]phenoxazin-8(1H)-ylidene)ethanaminium]
- nerve specificity (N/M contrast vs control group) via direct administration [1]: positive nerve specificity
- Max Abs [2]: 613 nm
- Max Em [2]: 640 nm
- Max Ex [2]: 615 nm
- Extinction coefficient [2]: 45382 M⁻¹ cm⁻¹
- Quantum yield [2]: 41.05%
- nerve specificity / nerve contrast (N/M vs control group) following systemic administration [3]: negative for nerve contrast
